Test results taken from US10093656B2, “Fused-ring or tricyclic aryl pyrimidine compound used as kinase inhibitor” (NANJING SANHOME PHARMACEUTICAL CO., LTD, priority 2015, dated 2018).

Tests used:
A431 cells EGFR WT = experiment: A431 cell viability assay (Cell Titer-Glo, 6 days); assay type: cell-based, human; details: for IC50: Homo sapiens, A-431, 144 h, A431 cells, 6 days; for A431:NCI-H1975 (ratio): ratio of cell IC50 A431 to NCI-H1975
Summary of the method: (§1)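 A431 (EGFR WT) and NCI-H1975 (EGFR L858R/T790M) cells treated for 6 days at 37° C, in duplicate with 10 three-fold doses from 10 μM to 0.508 nM final. Viability read as CellTiter-Glo luminescence. IC50 from four-parameter fit of % inhibition.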

EGFR wild type = molecular target: T1, EGFR wild type (Homo sapiens, UniProt P00533); experiment: Wild-type EGFR enzyme HTRF inhibition assay; assay type: biochemical; details: 25 μM ATP, read-out: EGFR WT IC50
T1 construct: purchased Life technology (Madison, Wis.)
T1 sequence (P00533 25-1210): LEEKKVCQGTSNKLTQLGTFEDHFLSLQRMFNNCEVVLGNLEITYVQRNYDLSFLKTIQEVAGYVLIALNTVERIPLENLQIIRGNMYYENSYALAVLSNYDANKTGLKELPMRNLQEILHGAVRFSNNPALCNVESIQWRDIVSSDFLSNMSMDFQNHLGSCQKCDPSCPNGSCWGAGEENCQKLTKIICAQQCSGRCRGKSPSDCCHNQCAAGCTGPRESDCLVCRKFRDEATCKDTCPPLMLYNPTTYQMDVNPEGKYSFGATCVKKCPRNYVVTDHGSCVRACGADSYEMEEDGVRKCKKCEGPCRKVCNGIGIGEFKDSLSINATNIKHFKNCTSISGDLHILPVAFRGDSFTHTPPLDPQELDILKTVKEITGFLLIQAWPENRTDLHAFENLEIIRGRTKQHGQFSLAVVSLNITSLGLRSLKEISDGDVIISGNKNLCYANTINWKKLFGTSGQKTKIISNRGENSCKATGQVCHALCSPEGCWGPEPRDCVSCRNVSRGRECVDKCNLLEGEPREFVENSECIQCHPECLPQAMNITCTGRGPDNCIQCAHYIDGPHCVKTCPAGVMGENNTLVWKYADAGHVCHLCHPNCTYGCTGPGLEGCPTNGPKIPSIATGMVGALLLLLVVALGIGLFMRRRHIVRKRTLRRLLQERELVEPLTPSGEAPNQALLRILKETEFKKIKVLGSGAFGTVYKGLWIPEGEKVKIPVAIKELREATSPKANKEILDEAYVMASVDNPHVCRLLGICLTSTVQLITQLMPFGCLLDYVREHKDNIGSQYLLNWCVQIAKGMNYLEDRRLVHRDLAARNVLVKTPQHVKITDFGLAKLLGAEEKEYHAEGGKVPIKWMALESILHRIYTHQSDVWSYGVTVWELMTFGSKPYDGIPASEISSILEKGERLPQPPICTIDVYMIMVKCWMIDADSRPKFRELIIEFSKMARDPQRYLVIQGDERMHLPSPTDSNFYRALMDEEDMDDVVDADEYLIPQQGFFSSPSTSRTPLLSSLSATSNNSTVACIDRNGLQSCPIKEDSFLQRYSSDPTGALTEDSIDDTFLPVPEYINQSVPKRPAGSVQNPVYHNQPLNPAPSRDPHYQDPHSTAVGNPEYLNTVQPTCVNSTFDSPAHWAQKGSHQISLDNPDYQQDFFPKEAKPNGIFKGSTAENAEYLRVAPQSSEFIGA
Summary of the method: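 HTRF with 0.05 nM wild-type EGFR, 1 μM biotin-TK1 peptide, 25 μM ATP, 60 min at 23° C; detected with Eu-anti-TK1 antibody 2 nM and XL665 62.5 nM, 60 min at 23° C. Ten 3-fold doses, 300 nM to 0.015 nM final; IC50 by four-parameter fit of % inhibition.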

EGFR T790M/L858R = molecular target: T2, EGFR T790M/L858R (Homo sapiens, UniProt P00533, L858R/T790M); experiment: EGFR T790M/L858R enzyme HTRF inhibition assay; assay type: biochemical; details: 20 μM ATP, read-out: EGFR L858R/T79M IC50
T2 construct: purchased Life technology (Madison, Wis.)
T2 sequence (P00533 25-1210 T790M/L858R): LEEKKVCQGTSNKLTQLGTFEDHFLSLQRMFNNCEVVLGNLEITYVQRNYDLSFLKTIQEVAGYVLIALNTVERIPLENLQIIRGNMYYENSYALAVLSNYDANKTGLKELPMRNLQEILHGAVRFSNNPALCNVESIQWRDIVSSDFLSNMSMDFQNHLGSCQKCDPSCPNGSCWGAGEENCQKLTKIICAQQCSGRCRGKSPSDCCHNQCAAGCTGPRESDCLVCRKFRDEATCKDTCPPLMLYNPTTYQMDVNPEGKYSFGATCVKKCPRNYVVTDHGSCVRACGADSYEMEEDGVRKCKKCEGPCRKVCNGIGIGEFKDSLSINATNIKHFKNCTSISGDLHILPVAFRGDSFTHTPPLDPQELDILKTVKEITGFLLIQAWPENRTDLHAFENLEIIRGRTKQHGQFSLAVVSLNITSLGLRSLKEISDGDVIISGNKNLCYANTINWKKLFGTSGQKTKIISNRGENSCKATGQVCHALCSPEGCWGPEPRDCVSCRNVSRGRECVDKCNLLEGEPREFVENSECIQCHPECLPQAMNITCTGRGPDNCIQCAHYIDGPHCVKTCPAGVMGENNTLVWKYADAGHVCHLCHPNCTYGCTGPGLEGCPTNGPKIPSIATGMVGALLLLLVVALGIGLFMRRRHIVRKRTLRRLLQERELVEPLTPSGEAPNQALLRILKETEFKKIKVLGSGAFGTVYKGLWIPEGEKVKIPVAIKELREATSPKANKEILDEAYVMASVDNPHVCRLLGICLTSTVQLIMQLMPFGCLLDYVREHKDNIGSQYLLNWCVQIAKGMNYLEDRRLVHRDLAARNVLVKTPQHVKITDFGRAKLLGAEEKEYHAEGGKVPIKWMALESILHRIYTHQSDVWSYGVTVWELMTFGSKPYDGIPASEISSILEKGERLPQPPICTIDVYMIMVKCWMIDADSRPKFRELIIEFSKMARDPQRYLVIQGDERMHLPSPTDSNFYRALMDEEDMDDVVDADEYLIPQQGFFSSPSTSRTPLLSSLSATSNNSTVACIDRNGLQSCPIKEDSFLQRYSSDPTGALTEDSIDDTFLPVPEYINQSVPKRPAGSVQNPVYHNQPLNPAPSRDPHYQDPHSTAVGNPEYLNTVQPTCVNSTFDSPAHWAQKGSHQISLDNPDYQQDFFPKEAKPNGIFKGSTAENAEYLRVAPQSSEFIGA
Summary of the method: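 HTRF assay with 0.04 nM enzyme, 1 μM biotin-TK1 peptide and 20 μM ATP, 60 min at 23° C. Product detected with Eu-anti-TK1 antibody/XL665 (60 min at 23° C); compound at 10 doses, 300 nM to 0.015 nM final. IC50 from four-parameter fit.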

[1] = tested on: NCI-H1975 cells EGFR L858R/T790M; experiment: NCI-H1975 cell viability assay (Cell Titer-Glo, 6 days); assay type: cell-based; details: Homo sapiens, 144 h
Summary of the method: as §1

EGFR d746-750/T790M = molecular target: T3, EGFR d746-750/T790M (Homo sapiens, UniProt P00533, DEL746-750/T790M); experiment: EGFR d746-750/T790M enzyme HTRF inhibition assay; assay type: biochemical; details: 40 μM ATP
T3 construct: purchased Carna Biosciences (Japan)
T3 sequence (P00533 with tags, fused parts or gaps DEL746-750/T790M limits assumed): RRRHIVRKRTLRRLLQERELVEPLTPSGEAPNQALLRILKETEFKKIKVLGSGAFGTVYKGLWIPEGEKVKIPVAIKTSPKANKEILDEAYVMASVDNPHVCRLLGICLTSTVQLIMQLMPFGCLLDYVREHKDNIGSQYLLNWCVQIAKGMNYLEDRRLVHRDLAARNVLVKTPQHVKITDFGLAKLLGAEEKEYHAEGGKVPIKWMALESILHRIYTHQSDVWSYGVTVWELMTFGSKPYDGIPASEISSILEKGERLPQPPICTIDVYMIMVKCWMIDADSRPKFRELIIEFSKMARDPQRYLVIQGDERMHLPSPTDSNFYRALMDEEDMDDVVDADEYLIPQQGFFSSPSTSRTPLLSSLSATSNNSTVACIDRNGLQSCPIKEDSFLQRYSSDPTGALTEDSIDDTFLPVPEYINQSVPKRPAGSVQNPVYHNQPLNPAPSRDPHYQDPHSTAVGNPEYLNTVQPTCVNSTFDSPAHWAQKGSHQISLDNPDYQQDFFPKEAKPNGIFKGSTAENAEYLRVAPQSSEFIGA
Summary of the method: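 0.025 nM enzyme with 1 μM biotin-TK1 peptide and 40 μM ATP, 60 min at 23° C; compound tested at 10 doses, 300 nM to 0.015 nM final. HTRF read (Eu-anti-TK1 antibody 2 nM, XL665 62.5 nM, 60 min at 23° C); IC50 from four-parameter fit of % inhibition.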

INSR = molecular target: T4, INSR (Homo sapiens, UniProt P06213); experiment: INSR enzyme HTRF inhibition assay; assay type: biochemical; details: 35 μM ATP, read-out: INSR_IC50
T4 construct: purchased Life technology (Madison, Wis.)
T4 sequence (P06213 28-1382): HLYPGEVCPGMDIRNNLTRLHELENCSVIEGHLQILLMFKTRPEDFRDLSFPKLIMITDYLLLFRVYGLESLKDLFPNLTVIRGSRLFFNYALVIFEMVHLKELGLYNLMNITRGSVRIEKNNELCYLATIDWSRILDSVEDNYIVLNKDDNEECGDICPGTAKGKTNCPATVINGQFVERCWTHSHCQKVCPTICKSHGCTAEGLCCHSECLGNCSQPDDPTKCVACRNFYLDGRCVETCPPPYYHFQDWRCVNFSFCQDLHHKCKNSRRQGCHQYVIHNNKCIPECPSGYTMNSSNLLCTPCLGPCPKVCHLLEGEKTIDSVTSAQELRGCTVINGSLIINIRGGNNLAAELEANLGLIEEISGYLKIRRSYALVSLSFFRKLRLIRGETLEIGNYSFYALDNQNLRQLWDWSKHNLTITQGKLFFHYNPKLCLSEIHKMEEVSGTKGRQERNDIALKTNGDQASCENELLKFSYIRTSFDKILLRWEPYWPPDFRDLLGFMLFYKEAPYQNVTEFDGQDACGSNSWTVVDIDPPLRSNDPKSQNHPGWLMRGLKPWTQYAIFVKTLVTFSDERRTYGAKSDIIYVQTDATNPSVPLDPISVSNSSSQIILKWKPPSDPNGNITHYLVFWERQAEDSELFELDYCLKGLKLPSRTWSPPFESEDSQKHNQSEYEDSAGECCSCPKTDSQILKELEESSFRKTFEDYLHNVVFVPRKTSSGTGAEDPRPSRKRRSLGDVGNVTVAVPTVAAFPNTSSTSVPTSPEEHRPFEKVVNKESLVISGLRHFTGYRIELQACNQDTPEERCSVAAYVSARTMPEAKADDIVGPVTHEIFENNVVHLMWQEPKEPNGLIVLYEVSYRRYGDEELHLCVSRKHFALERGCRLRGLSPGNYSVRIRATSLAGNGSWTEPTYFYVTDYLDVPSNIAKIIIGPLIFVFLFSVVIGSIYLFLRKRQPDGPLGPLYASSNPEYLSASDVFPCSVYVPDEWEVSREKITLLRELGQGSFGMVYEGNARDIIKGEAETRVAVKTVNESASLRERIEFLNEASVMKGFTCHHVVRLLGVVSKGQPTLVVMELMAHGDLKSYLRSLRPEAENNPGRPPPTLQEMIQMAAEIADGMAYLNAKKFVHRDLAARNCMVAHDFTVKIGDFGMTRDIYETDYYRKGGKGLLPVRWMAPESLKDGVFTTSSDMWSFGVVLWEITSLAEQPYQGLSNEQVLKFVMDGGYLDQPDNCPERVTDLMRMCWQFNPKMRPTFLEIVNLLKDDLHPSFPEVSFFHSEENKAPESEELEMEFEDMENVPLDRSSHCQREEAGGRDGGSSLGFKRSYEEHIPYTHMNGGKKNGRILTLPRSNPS
Procedure: Enzyme: EGFR wild type, EGFR T790M/L858R, EGFR T790M and INSR were purchased from Life technology (Madison, Wis.), EGFR d746-750/T790M was purchased from Carna Biosciences (Japan).
HTRF Kit was purchased from Cis-Bio International which contained the Eu-labeled TK1 antibody, XL665 and biotin-labeled TK1 polypeptide substrates.
Detecting instrument: Envision (PerkinElmer).
The test compound was diluted 3-fold to obtain 10 doses of which the final concentration was from 300 nM to 0.015 nM.
INSR Enzyme Reaction Mixture System:
0.5 nM INSR, 1 μM biotin-TK1 peptide, 35 μM ATP enzyme buffer, a total of which was 10 μL. The reaction plate was white Proxiplate 384-Plus plate (PerkinElmer) and the mixture was reacted at 23° C. for 60 minutes.
Reaction Detection: 10 μL of detection reagent containing Antibody 2 nM and XL665 62.5 nM was added, and the reagent was incubated at 23° C. for 60 minutes. The plates were read by Envision.
The reading is converted to the suppression rate (%) by the following formula […]/(Max-Min)*100%. IC50 Data was measured by four-parameter curve fitting (Model 205 in XLFITS, IDBS).

[2] = tested on: NCI-H1975 lung cancer patient-derived xenograft (CDX); experiment: Pharmacodynamics study in vivo, NCI-H1975 xenograft (CDX) model; set-up: species or system BALB/c nude mice; details: AZD9291 5 mg/kg
Procedure: For example, after 21 days of administration, the tumor volume of the representative compounds 30, 33, 34, 40, 42 and 43 decreased from the beginning of about 149 mm^3 to 3-39 mm^3.
The pharmacological experiments in vivo were performed on BALB/c nude mice that subcutaneously implanted NCI-H1975 lung cancer […] xenograft (CDX).
BALB/c nude mice, female, 6-8 weeks, weighted about 18-22 grams, the mice were kept in a special pathogen-free environment, and in a single ventilation cage (5 mice per cage). The bedding and water of all the cages were disinfected before use. All animals were free to obtain standard certified commercial laboratory diets. A total of 100 mice were purchased from Beijing Vital for research. The tumor tissue (20-30 mm^3) was implanted subcutaneously in the […] of each mouse for tumor growth. The experiment was started when the average tumor volume reached about 150-200 mm^3. The test compound was orally administered daily (compound 30 was administered at 10 mg/kg, compound 33, 34, 40, 42 and 43 were administered at 20 mg/kg and compound AZD9291 was administered continuously for 21 days at 5 mg/kg, the data were shown in Table 3). The tumor volume was measured twice a week with a two-dimensional caliper and the volume was measured in cubic millimeters and calculated by the following formula: V=V=0.5 a×b2, where a and b were the major and minor diameters of the tumor, respectively.

Row | Structure (SMILES) | IC50 (A431 cells EGFR WT) [nM] | IC50 (EGFR wild type) [nM] | IC50 (EGFR T790M/L858R) [nM] | IC50 [1] [nM] | IC50 (EGFR d746-750/T790M) [nM] | IC50 (INSR) [nM] | A431:NCI-H1975 (ratio) (A431 cells EGFR WT) | Tumor Volume (mm^3) 4 days ([2]; day 4, oral daily: compound 30 10 mg/kg, 33, 34, 40, 42, 43 20 mg/kg) [mm^3] | Tumor Volume (mm^3) 7 days ([2]; day 7, oral daily: compound 30 10 mg/kg, 33, 34, 40, 42, 43 20 mg/kg) [mm^3] | Tumor Volume (mm^3) 11 days ([2]; day 11, oral daily: compound 30 10 mg/kg, 33, 34, 40, 42, 43 20 mg/kg) [mm^3] | Tumor Volume (mm^3) 14 days ([2]; day 14, oral daily: compound 30 10 mg/kg, 33, 34, 40, 42, 43 20 mg/kg) [mm^3] | Tumor Volume (mm^3) 18 days ([2]; day 18, oral daily: compound 30 10 mg/kg, 33, 34, 40, 42, 43 20 mg/kg) [mm^3]
1 | C=CC(=O)Nc1cc(Nc2nccc(-c3c4n(c5ccccc35)CCOC4)n2)c(OC)cc1N(C)CC(C)(C)N(C)C [Embodiment 25, N-(5-((4-(3,4-Dihydro-1H-[1,4]oxazino[4,3-a]indol-10-yl)pyrimidin-2-yl)amino)-2-((2-(dimethylamino)-2-methylpropyl)(methyl)amino)-4-methoxyphenyl)acrylamide] | 248 | 0.81 | 0.2 | 4 | 0.13 | 333 | 62 | – | – | – | – | –
2 | C=CC(=O)Nc1cc(Nc2nccc(-c3c4n(c5ccccc35)CCOC4)n2)c(OC)cc1N(C)CCN(C)C [Embodiment 17, N-(5-((4-(3,4-Dihydro-1H-[1,4]oxazino[4,3-a]indol-10-yl)pyrimidin-2-yl)amino)-2-((2-(dimethylamino)ethyl)(methyl)amino)-4-methoxyphenyl)acrylamide] | 777 | 0.89 | 0.21 | 4.1 | 0.18 | 341 | 189.5 | – | – | – | – | –
3 | C=CC(=O)Nc1cc(Nc2nccc(-c3c4n(c5ccccc35)CCOC4)n2)c(OC)cc1N(C)CCN(C)CC [Embodiment 18, N-(5-((4-(3,4-Dihydro-1H-[1,4]oxazino[4,3-a]indol-10-yl)pyrimidin-2-yl)amino)-2-((2-(ethyl(methyl)amino)ethyl)(methyl)amino)-4-methoxyphenyl)acrylamide] | 518 | 1.9 | 0.2 | 7 | 0.18 | 633 | 74 | – | – | – | – | –
4 | C=CC(=O)Nc1cc(Nc2nccc(-c3c4n(c5ccc(F)cc35)CCOC4)n2)c(OC)cc1N(C)CCN(C)C [Embodiment 37, N-(2-((2-(Dimethylamino)ethyl)(methyl)amino)-5-((4-(8-fluoro-3,4-dihydro-1H-[1,4]oxazino[4,3-a]indol-10-yl)pyrimidin-2-yl)amino)-4-methoxyphenyl)acrylamide] | 303 | 0.35 | 0.1 | 12.5 | 0.1 | 440 | 24 | – | – | – | – | –
5 | C=CC(=O)Nc1cc(Nc2nccc(-c3c4n(c5ccccc35)CCOC4)n2)c(OC)cc1N(C)CCNC [Embodiment 27, N-(5-((4-(3,4-Dihydro-1H-[1,4]oxazino[4,3-a]indol-10-yl)pyrimidin-2-yl)amino)-4-methoxy-2-(methyl(2-(methylamino)ethyl)amino)phenyl)acrylamide] | 485 | 1.7 | 0.21 | 5 | 0.19 | 570 | 97 | – | – | – | – | –

More lines, main results first:

Row | IC50 (A431 cells EGFR WT) [nM] | IC50 (EGFR wild type) [nM] | IC50 (EGFR T790M/L858R) [nM] | IC50 [1] [nM] | IC50 (EGFR d746-750/T790M) [nM] | IC50 (INSR) [nM] | Structure (SMILES) | A431:NCI-H1975 (ratio) (A431 cells EGFR WT) | Tumor Volume (mm^3) 4 days ([2]; day 4, oral daily: compound 30 10 mg/kg, 33, 34, 40, 42, 43 20 mg/kg) [mm^3] | Tumor Volume (mm^3) 7 days ([2]; day 7, oral daily: compound 30 10 mg/kg, 33, 34, 40, 42, 43 20 mg/kg) [mm^3] | Tumor Volume (mm^3) 11 days ([2]; day 11, oral daily: compound 30 10 mg/kg, 33, 34, 40, 42, 43 20 mg/kg) [mm^3] | Tumor Volume (mm^3) 14 days ([2]; day 14, oral daily: compound 30 10 mg/kg, 33, 34, 40, 42, 43 20 mg/kg) [mm^3] | Tumor Volume (mm^3) 18 days ([2]; day 18, oral daily: compound 30 10 mg/kg, 33, 34, 40, 42, 43 20 mg/kg) [mm^3]
6 | 317 | 0.6 | 0.09 | 7 | 0.1 | 310 | C=CC(=O)Nc1cc(Nc2nccc(-c3c4n(c5cc(F)ccc35)CCOC4)n2)c(OC)cc1N(C)CCN(C)C [Embodiment 38, N-(2-((2-(Dimethylamino)ethyl)(methyl)amino)-5-((4-(7-fluoro-3,4-dihydro-1H-[1,4]oxazino[4,3-a]indol-10-yl)pyrimidin-2-yl)amino)-4-methoxyphenyl)acrylamide] | 45 | – | – | – | – | –
7 | 854 | 1.58 | 0.21 | 67.2 | 0.19 | 886 | C=CC(=O)Nc1cc(Nc2nccc(-c3c4n(c5ccccc35)CCC4)n2)c(OC)cc1OCCN(C)C [Embodiment 3, N-(5-((4-(2,3-Dihydro-1H-pyrrolo[1,2-a]indol-9-yl)pyrimidin-2-yl)amino)-2-(2-(dimethylamino)ethoxy)-4-methoxyphenyl)acrylamide] | 12.7 | – | – | – | – | –
8 | 714 | 1.49 | 0.32 | 10.4 | 0.39 | 404 | C=CC(=O)Nc1cc(Nc2nccc(-c3c4n(c5ccccc35)CCC4)n2)c(OC)cc1N(C)CCN(C)C [Embodiment 1] | 71.4 | – | – | – | – | –
9 | 823 | 0.8 | 0.14 | 15 | 0.16 | 393 | C=CC(=O)Nc1cc(Nc2ncc(F)c(-c3c4n(c5ccccc35)CCOC4)n2)c(OC)cc1N(C)CCN(C)C [Embodiment 30, N-(5-((4-(3,4-Dihydro-1H-[1,4]oxazino[4,3-a]indol-10-yl)-5-fluoropyrimidin-2-yl)amino)-2-((2-(dimethylamino)ethyl)(methyl)amino)-4-methoxyphenyl)acrylamide] | 55 | 115 | 90 | 48 | 34 | 22
